Results reported in US10029994B2, “Isoxazole hydroxamic acid compounds as LpxC inhibitors” (priority 2014, dated 2018).

How the values were obtained:
P. aeruginosa LpxC = target: T1, P. aeruginosa LpxC (Pseudomonas aeruginosa, UniProt P47205); experiment: P. aeruginosa LpxC Inhibition Assay (LC-MS/MS); type: biochemical; conditions: 1 nM P. aeruginosa LpxC, 30 min pre-incubation, 2 μM UDP-3-O-(R-3-hydroxydecanoyl)-GlcNAc, pH 7.5
T1 construct: made in house
T1 sequence (P47205 1-303): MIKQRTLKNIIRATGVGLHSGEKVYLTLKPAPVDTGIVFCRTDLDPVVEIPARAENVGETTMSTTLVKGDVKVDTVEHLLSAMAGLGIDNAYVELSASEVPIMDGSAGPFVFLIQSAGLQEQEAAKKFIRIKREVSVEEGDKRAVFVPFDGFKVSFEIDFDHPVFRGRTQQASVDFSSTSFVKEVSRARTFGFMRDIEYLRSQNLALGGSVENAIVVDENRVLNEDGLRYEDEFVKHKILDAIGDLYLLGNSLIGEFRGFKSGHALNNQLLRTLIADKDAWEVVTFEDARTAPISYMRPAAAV
Source text: P. aeruginosa LpxC Inhibition Assay
The P. aeruginosa LpxC protein is produced according to the general method of Hyland et al (Journal of Bacteriology 1997 179, 2029-2037: Cloning, expression and purification of UDP-3-O-acyl-GlcNAc deacetylase from Pseudomonas aeruginosa: a metalloamidase of the lipid A biosynthesis pathway). The LC-MS/MS method for quantitation of LpxC product was developed using an Agilent 1200 Capillary HPLC system coupled to an Applied Biosystems MDS Sciex 4000QTRAP mass spectrometer. Both instruments are controlled using the Applied Biosystems MDS Sciex Analyst software. LpxC reaction product (UDP-3-O—(R-3-hydroxyacyl)-glucosamine) was produced by hydrolysis of LpxC substrate catalyzed by P.a. LpxC and purified using reversed phase chromatography on a Phenomenex Luna C18(2) 4.6×50 mm column. An LpxC product calibration curve was generated to evaluate the sensitivity and dynamic range of the LC-MS/MS method. Briefly, compounds are pre-incubated with 1 nM P. aeruginosa LpxC for 30 min. at room temperature. Reactions are initiated by the addition of 2 μM UDP-3-O—(R-3-hydroxydecanoyl)-GlcNAc. Reactions are conducted in a 384-well plate with a total volume of 50 μL in each well containing 50 mM Sodium phosphate pH 7.5, 0.005% Trition X-100 for 20 min at room temperature. After quenching with 1.8% HOAc (5 μL of a 20% HOAc added to each well), reaction mixtures are analyzed using the LC-MS/MS method and peak areas are transformed into product concentration using a LpxC product calibration curve. Total activity (0% inhibition control) is obtained from reactions with no inhibitors and 100% inhibition control is the background using quenched samples before reaction starts. For IC50 determinations, peak areas are converted to percent inhibition in Microsoft Excel. Percent inhibition values are plotted vs. log compound concentration using XLfit. Data is fit to the four-parameter logistic equation using the non-linear regression algorithm in XLfit to return the IC50 and hill slope values.

P. A. PAO1 NB52019 = experiment: MIC, broth microdilution (CLSI); type: cell-based, Pseudomonas aeruginosa; conditions: Pseudomonas aeruginosa, PAO1; broth microdilution, 35° C., 20 hours; read-out: P. A. PAO1 NB52019 MIC
Protocol: (§1) Bacterial isolates were cultivated from −70° C. frozen stocks by two consecutive overnight passages at 35° C. in ambient air on 5% blood agar (Remel, Lenexa, Kans.). Quality control strain, P. aeruginosa ATCC 27853, A. baumannii ATCC19606 and E. coli ATCC 25922 are from the American Type Culture Collection (ATCC; Rockville, Md.) and PAO1 was received from Dr. K. Poole.
(§2) Minimal Inhibitory Concentrations (MICs) were determined by the broth microdilution method in accordance with Clinical and Laboratories Institute (CLSI) guidelines (CLSI M100-S25, Performance Standards for Antimicrobial Susceptibility Testing; Twenty-fifth Informational Supplement). In brief, fresh bacterial overnight cultures were resuspended in sterile saline, adjusted to a 0.5 McFarland turbidity standard and then diluted 2000-fold in cation adjusted Mueller-Hinton Broth II (MHB; Remel BBL) to yield a final inoculum of approximately 5×10^5 colony-forming units (CFU)/mL. Two-fold serial dilutions of compounds were prepared in 100% dimethyl sulfoxide (DMSO) at 100-fold the highest final assay concentration; the resulting dilution series of compounds were diluted 1:10 with sterile water. Ten μl of the drug dilution series in 10% DMSO was transferred to microtiter wells and 90 μl of bacterial suspension was inoculated into the wells. For testing the ability of compounds to potentiate the activity of known antibiotics, the assay was modified as follows; known antibiotics were added to the bacterial inoculum at 1.1-fold the final assay concentration indicated in Table A. All inoculated microdilution trays were incubated in ambient air at 35° C. for 20 hours. Following incubation, assay plates were read in a microtiter plate reader at 600 nm and visually inspected to confirm the MIC endpoint well with the OD value. The lowest concentration of the compound that prevented visible growth was recorded as the MIC. Performance of the assay was monitored by testing ciprofloxacin against the laboratory quality control strain in accordance with guidelines of the CLSI.

E. C. ATCC 25922 = experiment: MIC, broth microdilution (CLSI); type: cell-based, Escherichia coli; conditions: Escherichia coli, ATCC25922, 20 h, broth microdilution, 35° C., 20 hours; read-out: E. C. ATCC 25922 MIC
Protocol: as §1, §2

E. C. ATCC 29522 = experiment: MIC in the presence of sub-inhibitory rifampicin (potentiation/synergy); type: cell-based, Escherichia coli; conditions: +2 μg/ml rifampicin (RIF); broth microdilution, 35° C., 20 hours
Protocol: as §1, §2

A. B. ATCC 19606 [1] = experiment: MIC, broth microdilution (CLSI); type: cell-based, Acinetobacter baumannii; conditions: Acinetobacter baumannii, ATCC19606; broth microdilution, 35° C., 20 hours; read-out: A. B. ATCC 19606 MIC
Protocol: as §1, §2

A. B. ATCC 19606 [2] = experiment: MIC in the presence of sub-inhibitory rifampicin (potentiation/synergy); type: cell-based, Acinetobacter baumannii; conditions: +2 μg/ml rifampicin (RIF); broth microdilution, 35° C., 20 hours
Protocol: as §1, §2

Row | SMILES | IC50 (P. aeruginosa LpxC) [nM] | MIC (P. A. PAO1 NB52019) [µg/mL] | MIC (E. C. ATCC 25922) [µg/mL] | E. C. ATCC 29522 (+2 μg/ml RIF) MIC (E. C. ATCC 29522) [µg/mL] | MIC (A. B. ATCC 19606 [1]) [µg/mL] | A. B. ATCC 19606 (+2 μg/ml RIF) MIC (A. B. ATCC 19606 [2]) [µg/mL]
1 | C[C@@](CCc1cc(C#CCCCF)on1)(C(=O)NO)S(C)(=O)=O [Compound 1.10, (R)-4-(5-(5-fluoropent-1-yn-1-yl)isoxazol-3-yl)-N-hydroxy-2-methyl-2-(methylsulfonyl)butanamide] | < 1 | 0.5 | 8 | 0.25 | > 64 | 0.25
2 | C[C@@](CCc1cc(C#CCCC(F)F)on1)(C(=O)NO)S(C)(=O)=O [Compound 1.11, (R)-4-(5-(5,5-Difluoropent-1-yn-1-yl)isoxazol-3-yl)-N-hydroxy-2-methyl-2-(methylsulfonyl)butanamide] | 1 | 1 | 32 | 0.5 | > 64 | 1
3 | C[C@@](CCc1cc(C#CC2CC(F)(F)C2)on1)(C(=O)NO)S(C)(=O)=O [Compound 1.12, (R)-4-(5-((3,3-difluorocyclobutyl)ethynyl)isoxazol-3-yl)-N-hydroxy-2-methyl-2-(methylsulfonyl)butanamide] | < 1 | 0.5 | 16 | 0.25 | > 64 | ≤0.06
4 | CC(C)(O)CCC#Cc1cc(CC[C@](C)(C(=O)NO)S(C)(=O)=O)no1 [Compound 1.14, (R)—N-hydroxy-4-(5-(5-hydroxy-5-methylhex-1-yn-1-yl)isoxazol-3-yl)-2-methyl-2-(methylsulfonyl)butanamide] | 2 | 8 | > 64 | 16 | > 64 | ≤0.06
5 | CC(C)(O)C1CC(C#Cc2cc(CC[C@](C)(C(=O)NO)S(C)(=O)=O)no2)C1 (stereo partly drawn) [Compound 1.16, (R)—N-hydroxy-4-(5-((3-(2-hydroxypropan-2-yl)cyclobutyl)ethynyl)isoxazol-3-yl)-2-methyl-2-(methylsulfonyl)butanamide] | < 1 | 2 | 16 | 4 | > 64 | 4
6 | CC(CCc1cc(C#Cc2ccc(CO)cc2)on1)(C(=O)NO)S(C)(=O)=O (stereo not drawn) [Compound 2.1, N-hydroxy-4-(5-((4-(hydroxymethyl)phenyl)ethynyl)isoxazol-3-yl)-2-methyl-2-(methylsulfonyl)butanamide] | < 1 | 0.5 | 2 | ≤0.06 | > 64 | 2
7 | CC(CCc1cc(C#Cc2ccc(CCO)cc2)on1)(C(=O)NO)S(C)(=O)=O (stereo not drawn) [Compound 2.2, N-hydroxy-4-(5-((4-(2-hydroxyethyl)phenyl)ethynyl)isoxazol-3-yl)-2-methyl-2-(methylsulfonyl)butanamide] | < 1 | 0.25 | 0.25 | ≤0.06 | > 64 | 0.5
8 | COC(CO)c1ccc(C#Cc2cc(CCC(C)(C(=O)NO)S(C)(=O)=O)no2)cc1 (stereo not drawn) [Compound 2.3, N-hydroxy-4-(5-((4-(2-hydroxy-1-methoxyethyl)phenyl)ethynyl)isoxazol-3-yl)-2-methyl-2-(methylsulfonyl)butanamide] | < 1 | 0.5 | 1 | 0.125 | > 64 | 4
9 | CC(CCc1cc(C#Cc2ccccc2)on1)(C(=O)NO)S(C)(=O)=O (stereo not drawn) [Compound 2.4, N-hydroxy-2-methyl-2-(methylsulfonyl)-4-(5-(phenylethynyl)isoxazol-3-yl)butanamide] | < 1 | 0.5 | 0.5 | ≤0.06 | 64 | ≤0.06
10 | C[C@@H](O)Cc1ccc(C#Cc2cc(CCC(C)(C(=O)NO)S(C)(=O)=O)no2)cc1 (stereo partly drawn) [Compound 2.5, N-hydroxy-4-(5-((4-((R)-2-hydroxypropyl)phenyl)ethynyl)isoxazol-3-yl)-2-methyl-2-(methylsulfonyl)butanamide] | < 1 | 1 | 0.25 | 0.125 | > 64 | 0.5
11 | CO[C@H](CO)c1ccc(C#Cc2cc(CC[C@](C)(C(=O)NO)S(C)(=O)=O)no2)cc1 [Compound 2.6, (R)—N-hydroxy-4-(5-((4-((S)-2-hydroxy-1-methoxyethyl)phenyl)ethynyl)-isoxazol-3-yl)-2-methyl-2-(methylsulfonyl)butanamide] | < 1 | 0.25 | 0.5 | 0.125 | > 64 | 1
12 | C[C@@](CCc1cc(C#Cc2ccc([C@H](O)CO)cc2)on1)(C(=O)NO)S(C)(=O)=O [Compound 2.7, (R)-4-(5-((4-((S)-1,2-dihydroxyethyl)phenyl)ethynyl)isoxazol-3-yl)-N-hydroxy-2-methyl-2-(methylsulfonyl)butanamide] | < 1 | 0.25 | 1 | 0.125 | > 64 | 6
13 | C[C@@](CCc1cc(C#Cc2ccc([C@@H](O)CO)cc2)on1)(C(=O)NO)S(C)(=O)=O [Compound 2.8, (R)-4-(5-((4-((R)-1,2-dihydroxyethyl)phenyl)ethynyl)isoxazol-3-yl)-N-hydroxy-2-methyl-2-(methylsulfonyl)butanamide] | < 1 | 0.25 | 1 | 0.125 | > 64 | 1
